“And” between values parts separate entries of the source, which are not always exact repeats. Equal entries are not always repeated.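 Values below derive from 48-hour exposures of cells grown in 96-well plates, with endpoints linearly interpolated between the two concentrations bracketing the appropriate inhibition level. The concentration for 50% growth inhibition is given as GI50. TGI: total growth inhibition.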
Assays:
Test in all cases: NCI anticancer screen, dose series, 48 h
786-0 renal = system: 786-0 renal
A549 NSCLC = system: A549 NSCLC
ACHN renal = system: ACHN renal
COLO 205 colon = system: COLO 205 colon
DLD-1 colon = system: DLD-1 colon
HCT-116 colon = system: HCT-116 colon
HL-60(TB) leukemia = system: HL-60(TB) leukemia
HOP-62 NSCLC = system: HOP-62 NSCLC
HOP-92 NSCLC = system: HOP-92 NSCLC
HT29 colon = system: HT29 colon
IGROV1 ovarian = system: IGROV1 ovarian
K-562 leukemia = system: K-562 leukemia
KM12 colon = system: KM12 colon
KM20L2 colon = system: KM20L2 colon
LOX IMVI melanoma = system: LOX IMVI melanoma
LXFL 529 NSCLC = system: LXFL 529 NSCLC
M14 melanoma = system: M14 melanoma
M19-MEL melanoma = system: M19-MEL melanoma
MOLT-4 leukemia = system: MOLT-4 leukemia
NCI-H226 lung = system: NCI-H226 lung
NCI-H23 lung = system: NCI-H23 lung
NCI-H460 lung = system: NCI-H460 lung
NCI-H522 lung = system: NCI-H522 lung
OVCAR-3 ovarian = system: OVCAR-3 ovarian
OVCAR-4 ovarian = system: OVCAR-4 ovarian
OVCAR-5 ovarian = system: OVCAR-5 ovarian
OVCAR-8 ovarian = system: OVCAR-8 ovarian
RPMI-8226 leukemia = system: RPMI-8226 leukemia
SF-268 CNS = system: SF-268 CNS
SF-295 CNS = system: SF-295 CNS
SF-539 CNS = system: SF-539 CNS
SK-MEL-28 melanoma = system: SK-MEL-28 melanoma
SK-OV-3 ovarian = system: SK-OV-3 ovarian
SNB-19 CNS = system: SNB-19 CNS
SNB-75 CNS = system: SNB-75 CNS
SNB-78 CNS = system: SNB-78 CNS
SR leukemia = system: SR leukemia
SW-620 colon = system: SW-620 colon
TK-10 renal = system: TK-10 renal
U251 CNS = system: U251 CNS
UACC-257 melanoma = system: UACC-257 melanoma
UACC-62 melanoma = system: UACC-62 melanoma
UO-31 renal = system: UO-31 renal
A498 renal = system: A498 renal
CAKI-1 renal = system: CAKI-1 renal
CCRF-CEM leukemia = system: CCRF-CEM leukemia
DMS 114 small cell lung = system: DMS 114 small cell lung
DMS 273 small cell lung = system: DMS 273 small cell lung
DU-145 prostate = system: DU-145 prostate
EKVX NSCLC = system: EKVX NSCLC
HCC-2998 colon = system: HCC-2998 colon
HCT-15 colon = system: HCT-15 colon
HS 578T breast = system: HS 578T breast
MALME-3M melanoma = system: MALME-3M melanoma
MDA-MB-231 breast = system: MDA-MB-231 breast
MDA-MB-435 = system: MDA-MB-435
MDA-N = system: MDA-N
NCI/ADR-RES ovarian = system: NCI/ADR-RES ovarian
PC-3 prostate = system: PC-3 prostate
RXF 393 renal = system: RXF 393 renal
SK-MEL-2 melanoma = system: SK-MEL-2 melanoma
SK-MEL-5 melanoma = system: SK-MEL-5 melanoma
SN12C renal = system: SN12C renal
T-47D breast = system: T-47D breast

S=c1[nH]nc(-c2ccccc2)n1/N=C\c1ccc(-c2ccc(Cl)cc2)o1
TGI (786-0 renal): > 100000 nM | TGI (A549 NSCLC): > 100000 nM | TGI (ACHN renal): > 100000 nM | TGI (COLO 205 colon): > 100000 nM | TGI (DLD-1 colon): > 100000 nM | TGI (HCT-116 colon): > 100000 nM | TGI (HL-60(TB) leukemia): > 100000 nM | TGI (HOP-62 NSCLC): > 100000 nM | TGI (HOP-92 NSCLC): > 100000 nM | TGI (HT29 colon): > 100000 nM | TGI (IGROV1 ovarian): > 100000 nM | TGI (K-562 leukemia): > 100000 nM | TGI (KM12 colon): > 100000 nM | TGI (KM20L2 colon): > 100000 nM | TGI (LOX IMVI melanoma): > 100000 nM | TGI (LXFL 529 NSCLC): > 100000 nM | TGI (M14 melanoma): > 100000 nM | TGI (M19-MEL melanoma): > 100000 nM | TGI (MOLT-4 leukemia): > 100000 nM | TGI (NCI-H226 lung): > 100000 nM | TGI (NCI-H23 lung): > 100000 nM | TGI (NCI-H460 lung): > 100000 nM | TGI (NCI-H522 lung): > 100000 nM | TGI (OVCAR-3 ovarian): > 100000 nM | TGI (OVCAR-4 ovarian): > 100000 nM | TGI (OVCAR-5 ovarian): > 100000 nM | TGI (OVCAR-8 ovarian): > 100000 nM | TGI (RPMI-8226 leukemia): > 100000 nM | TGI (SF-268 CNS): > 100000 nM | TGI (SF-295 CNS): > 100000 nM | TGI (SF-539 CNS): > 100000 nM | TGI (SK-MEL-28 melanoma): > 100000 nM | TGI (SK-OV-3 ovarian): > 100000 nM | TGI (SNB-19 CNS): > 100000 nM | TGI (SNB-75 CNS): > 100000 nM | TGI (SNB-78 CNS): > 100000 nM | TGI (SR leukemia): > 100000 nM | TGI (SW-620 colon): > 100000 nM | TGI (TK-10 renal): > 100000 nM | TGI (U251 CNS): > 100000 nM | TGI (UACC-257 melanoma): > 100000 nM | TGI (UACC-62 melanoma): > 100000 nM | TGI (UO-31 renal): > 100000 nM

CC(=O)NC1C(OCc2ccccc2)OC(CO)C(O)C1OC(C)C(=O)NC(C)C(=O)N[C@@H](CCC(=O)OCCCNC1c2ccccc2Nc2cccc([N+](=O)[O-])c21)C(N)=O (some centres undefined)
GI50 (786-0 renal): 6.74 nM | TGI (786-0 renal): 30.6 nM | TGI (A498 renal): 20 nM | GI50 (A549 NSCLC): 30.6 nM | TGI (ACHN renal): 46.5 nM and < 40.7 nM | GI50 (CAKI-1 renal): 28 nM | TGI (CAKI-1 renal): 102 nM and 16.3 nM | GI50 (CCRF-CEM leukemia): 44.4 nM and 24.9 nM | TGI (CCRF-CEM leukemia): 422 nM and 1200 nM | GI50 (COLO 205 colon): 13.4 nM | TGI (COLO 205 colon): 27.4 nM | TGI (DMS 114 small cell lung): 21.5 nM | TGI (DMS 273 small cell lung): < 10.6 nM | TGI (DU-145 prostate): 79.9 nM | TGI (EKVX NSCLC): 33.4 nM and 35.6 nM | GI50 (HCC-2998 colon): 16.4 nM | TGI (HCC-2998 colon): 32.2 nM | GI50 (HCT-116 colon): 3.01 nM | TGI (HCT-116 colon): 24.2 nM and < 11.6 nM | TGI (HCT-15 colon): 24.5 nM | GI50 (HL-60(TB) leukemia): 21.1 nM | TGI (HL-60(TB) leukemia): 125 nM and 39.8 nM | GI50 (HOP-62 NSCLC): 23.4 nM | GI50 (HOP-92 NSCLC): 15.9 nM | TGI (HOP-92 NSCLC): 43.4 nM and 27 nM | TGI (HS 578T breast): 72.5 nM | GI50 (HT29 colon): 5.83 nM | TGI (HT29 colon): 29.5 nM and 10.2 nM | GI50 (IGROV1 ovarian): 51.4 nM | TGI (IGROV1 ovarian): 267 nM and 86.1 nM | TGI (K-562 leukemia): 14.1 nM | GI50 (KM12 colon): 21.1 nM | TGI (KM12 colon): 51.6 nM and < 10.7 nM | GI50 (LOX IMVI melanoma): 181 nM | TGI (LOX IMVI melanoma): 441 nM and 103 nM | TGI (LXFL 529 NSCLC): < 23.2 nM | GI50 (M14 melanoma): 20.1 nM | TGI (M14 melanoma): 48.5 nM | GI50 (MALME-3M melanoma): 15.7 nM | TGI (MALME-3M melanoma): 32.4 nM | TGI (MDA-MB-231 breast): 74 nM | TGI (MDA-MB-435): 30.9 nM | TGI (MDA-N): 31.7 nM | GI50 (MOLT-4 leukemia): 40.6 nM | TGI (MOLT-4 leukemia): 425 nM and 48.6 nM | GI50 (NCI-H226 lung): 14.7 nM | TGI (NCI-H226 lung): 45.5 nM and < 15.1 nM | TGI (NCI-H23 lung): 29.5 nM | GI50 (NCI-H460 lung): 1.38 nM | TGI (NCI-H460 lung): 14 nM and 13 nM | GI50 (NCI-H522 lung): 13.8 nM | TGI (NCI-H522 lung): 40.5 nM and < 15.1 nM | TGI (NCI/ADR-RES ovarian): 54.5 nM | GI50 (OVCAR-3 ovarian): 27.2 nM | TGI (OVCAR-3 ovarian): 94.5 nM and 10.2 nM | GI50 (OVCAR-4 ovarian): 31.4 nM | TGI (OVCAR-4 ovarian): 140 nM and < 18 nM | GI50 (OVCAR-5 ovarian): 10.5 nM | TGI (OVCAR-5 ovarian): 73.7 nM and 48.8 nM | GI50 (OVCAR-8 ovarian): 20 nM | TGI (OVCAR-8 ovarian): 76.5 nM and 34.7 nM | TGI (PC-3 prostate): 141 nM | TGI (RPMI-8226 leukemia): < 17.4 nM | TGI (RXF 393 renal): 32 nM | GI50 (SF-268 CNS): 19.5 nM | TGI (SF-268 CNS): 63.9 nM and 51.2 nM | GI50 (SF-295 CNS): 67.7 nM | TGI (SF-295 CNS): 433 nM and 59.6 nM | GI50 (SF-539 CNS): 29.7 nM | TGI (SF-539 CNS): 110 nM and 16.7 nM | GI50 (SK-MEL-2 melanoma): 22.1 nM | TGI (SK-MEL-2 melanoma): 53.2 nM | GI50 (SK-MEL-28 melanoma): 27 nM | TGI (SK-MEL-28 melanoma): 64.3 nM and 15.5 nM | GI50 (SK-MEL-5 melanoma): 20 nM | TGI (SK-MEL-5 melanoma): 53.8 nM and 15.2 nM | GI50 (SK-OV-3 ovarian): 147 nM | TGI (SK-OV-3 ovarian): 644 nM and 96.5 nM | GI50 (SN12C renal): 17.8 nM | TGI (SN12C renal): 97.5 nM and < 12.2 nM | GI50 (SNB-19 CNS): 30.3 nM | TGI (SNB-19 CNS): 211 nM and 58.4 nM | GI50 (SNB-75 CNS): 28.4 nM | TGI (SNB-75 CNS): 145 nM and 48 nM | TGI (SNB-78 CNS): 40.7 nM | GI50 (SR leukemia): 0.3 nM | TGI (SR leukemia): 9.48 nM and 22.1 nM | GI50 (SW-620 colon): 1.35 nM | TGI (SW-620 colon): 17 nM and 55.7 nM | TGI (T-47D breast): 669 nM | TGI (TK-10 renal): 30.1 nM | GI50 (U251 CNS): 13.8 nM | TGI (U251 CNS): 49.7 nM and 15.9 nM | TGI (UACC-257 melanoma): 15.9 nM | TGI (UACC-62 melanoma): < 11.2 nM | TGI (UO-31 renal): 38.4 nM

— PubChem BioAssay (NCI)
